The values below are quoted from earlier work in US8450455B2, “cRGD peptide derivative and its manufacture, and implant having a coating containing a cRGD peptide derivative” (Biotronik AG, priority 2010, dated 2013).

The conditions of series [1]: 1-octanol/water, 25° C.
In another series the target is integrin ανβ3 (Homo sapiens, UniProt P05106+P06756). The following applies: integrin expressed by tumor cells.
Chain of integrin ανβ3 (P06756 31-889 limits assumed): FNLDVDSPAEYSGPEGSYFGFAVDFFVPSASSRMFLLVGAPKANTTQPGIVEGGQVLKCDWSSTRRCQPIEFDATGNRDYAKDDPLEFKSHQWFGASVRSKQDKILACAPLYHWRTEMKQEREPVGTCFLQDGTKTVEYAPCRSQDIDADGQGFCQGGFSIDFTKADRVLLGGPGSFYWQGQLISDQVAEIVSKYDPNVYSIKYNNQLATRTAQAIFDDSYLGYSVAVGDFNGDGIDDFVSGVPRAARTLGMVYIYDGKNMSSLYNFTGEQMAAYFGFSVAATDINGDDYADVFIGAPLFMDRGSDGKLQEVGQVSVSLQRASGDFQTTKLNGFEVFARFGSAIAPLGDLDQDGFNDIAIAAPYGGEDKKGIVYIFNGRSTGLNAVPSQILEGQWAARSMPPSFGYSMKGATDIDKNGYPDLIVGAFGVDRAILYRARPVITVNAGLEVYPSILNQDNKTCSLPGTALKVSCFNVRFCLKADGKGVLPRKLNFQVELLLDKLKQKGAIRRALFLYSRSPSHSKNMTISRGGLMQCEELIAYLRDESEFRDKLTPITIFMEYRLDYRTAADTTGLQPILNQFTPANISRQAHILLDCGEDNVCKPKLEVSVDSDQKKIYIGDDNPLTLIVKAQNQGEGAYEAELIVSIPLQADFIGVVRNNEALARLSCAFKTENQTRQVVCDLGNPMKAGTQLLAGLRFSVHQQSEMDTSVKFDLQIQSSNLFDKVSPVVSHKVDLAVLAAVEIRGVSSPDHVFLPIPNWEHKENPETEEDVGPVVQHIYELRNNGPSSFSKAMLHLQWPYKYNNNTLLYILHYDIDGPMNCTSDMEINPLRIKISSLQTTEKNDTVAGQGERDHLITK
Chain of integrin ανβ3 (P06756 891-1048 partner limits assumed): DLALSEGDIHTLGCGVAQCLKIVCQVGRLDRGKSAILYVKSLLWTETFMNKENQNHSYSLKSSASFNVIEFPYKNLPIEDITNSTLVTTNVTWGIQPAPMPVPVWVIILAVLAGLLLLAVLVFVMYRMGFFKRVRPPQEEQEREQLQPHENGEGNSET
Chain of integrin ανβ3 (P05106 27-788): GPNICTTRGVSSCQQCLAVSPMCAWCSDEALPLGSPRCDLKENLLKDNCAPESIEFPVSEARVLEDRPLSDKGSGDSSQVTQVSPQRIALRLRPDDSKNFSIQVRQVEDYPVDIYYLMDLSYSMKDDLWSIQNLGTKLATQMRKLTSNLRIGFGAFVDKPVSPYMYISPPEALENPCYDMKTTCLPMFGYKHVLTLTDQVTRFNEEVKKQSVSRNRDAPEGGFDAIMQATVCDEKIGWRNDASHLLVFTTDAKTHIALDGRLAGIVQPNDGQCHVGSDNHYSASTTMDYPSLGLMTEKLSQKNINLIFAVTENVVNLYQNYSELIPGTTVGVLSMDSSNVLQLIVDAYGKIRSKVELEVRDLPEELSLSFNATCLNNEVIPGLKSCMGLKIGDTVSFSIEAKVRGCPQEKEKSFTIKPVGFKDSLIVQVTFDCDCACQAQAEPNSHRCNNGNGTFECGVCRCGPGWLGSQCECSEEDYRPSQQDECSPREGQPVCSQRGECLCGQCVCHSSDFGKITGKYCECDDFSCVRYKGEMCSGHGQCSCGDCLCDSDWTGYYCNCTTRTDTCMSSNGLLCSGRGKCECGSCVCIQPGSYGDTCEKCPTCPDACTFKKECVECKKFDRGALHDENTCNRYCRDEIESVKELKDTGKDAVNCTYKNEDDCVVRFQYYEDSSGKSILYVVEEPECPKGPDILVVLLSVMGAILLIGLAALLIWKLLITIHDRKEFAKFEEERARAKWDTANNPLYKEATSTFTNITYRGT

`CCCCCCCN` [1-aminoheptane]: the logP (as a rule, the decadic logarithm of the partition coefficient of the neutral form, usually between octanol and water) in series [1] is recorded as 2.57. With c(RGDfV), the “inhibition of integrin ανβ3” value at integrin ανβ3 is recorded as “well-inhibited”.
